How the values were obtained:
[1] = system: T1, CTL2-GFP (C. trachomatis L2/434/Bu, GFP-expressing); test: microbe, parasite or virus in culture; parameters: Intracellular C. trachomatis growth in HeLa cells, bulk GFP fluorescence relative to DMSO; conditions: Chlamydia trachomatis, HeLa, 28.5 h; bulk GFP, mean of 2; read-out: % of control remaining
T1 construct: L2/434/Bu, GFP-expressing
Protocol: MICs were calculated as described above.

[2] = in vitro; parameters: Viability of infected HeLa host cells, resazurin conversion, bulk resorufin fluorescence relative to DMSO; conditions: human, hela cells; bulk resorufin, mean of 2
[3] = in vitro; conditions: human, hela cells, % viability
[4] = system: T2, C. trachomatis L2/434/Bu expressing GFP (CTL2-GFP); test: microbe, parasite or virus in culture; parameters: C. trachomatis total inclusion area by high-content imaging, normalised to DMSO; conditions: Chlamydia trachomatis, HeLa, 28.5 h; total inclusion area; read-out: % of control remaining
T2 construct: L2/434/Bu GFP intracellular growth in HeLa cells
Method in brief: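 Read-out combines bulk fluorescence and imaging: GFP tracks chlamydial growth, resorufin tracks host cell viability. Plates were then fixed and Hoechst-stained so inclusions and nuclei could be imaged and counted per well.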

Cc1noc(NS(=O)(=O)c2ccc(NC(=O)COc3ccccc3Br)cc2)c1C [CBK263918]
activity at 1 µM [1]: 97.7%
activity at 5 µM [1]: 57.6%
activity at 10 µM [1]: 25.5%
viability at 28.5 h, 1 µM [2]: 96.5%
viability at 28.5 h, 5 µM [2]: 96.5%
viability at 28.5 h, 10 µM [2]: 95.3%
viability at 28.5 h, 10 µM [3]: 89.4%
activity at 1 µM [4]: 91.6%
activity at 5 µM [4]: 88.5%
activity at 10 µM [4]: 31%

Cc1c(OCc2cnn(-c3ccccc3)c2)ccc(-c2n[nH]c(C(F)(F)F)c2-c2ccccc2)c1O [CBK264962]
activity at 1 µM [1]: 89.8%
activity at 5 µM [1]: 73.9%
activity at 10 µM [1]: 49.7%
viability at 28.5 h, 1 µM [2]: 109%
viability at 28.5 h, 5 µM [2]: 90.9%
viability at 28.5 h, 10 µM [2]: 97%
viability at 28.5 h, 10 µM [3]: 104%
activity at 1 µM [4]: 82.3%
activity at 5 µM [4]: 57.5%
activity at 10 µM [4]: 20.9%

CC(C)(CNS(=O)(=O)c1ccc(F)cc1)CNS(=O)(=O)c1ccc(F)cc1 [CBK265455]
activity at 1 µM [1]: 79.4%
activity at 5 µM [1]: 13.3%
activity at 10 µM [1]: 0%
viability at 28.5 h, 1 µM [2]: 112%
viability at 28.5 h, 5 µM [2]: 111%
viability at 28.5 h, 10 µM [2]: 116%
viability at 28.5 h, 10 µM [3]: 111%
activity at 1 µM [4]: 80.8%
activity at 5 µM [4]: 21.4%
activity at 10 µM [4]: 1.74%

Cc1ccc2nsnc2c1S(=O)(=O)Nc1cccc2cccnc12 [CBK267051]
activity at 1 µM [1]: 108%
activity at 5 µM [1]: 79.7%
activity at 10 µM [1]: 47.8%
viability at 28.5 h, 1 µM [2]: 76.3%
viability at 28.5 h, 5 µM [2]: 60.6%
viability at 28.5 h, 10 µM [2]: 60.9%
viability at 28.5 h, 10 µM [3]: 46.9%
activity at 1 µM [4]: 87.7%
activity at 5 µM [4]: 88.5%
activity at 10 µM [4]: 34.4%

O=C(CSCc1c(F)cccc1Cl)Nc1ccc(S(=O)(=O)N2CCCCC2)cc1 [CBK268034]
activity at 1 µM [1]: 82.4%
activity at 5 µM [1]: 35.6%
activity at 10 µM [1]: 27.1%
viability at 28.5 h, 1 µM [2]: 91.9%
viability at 28.5 h, 5 µM [2]: 104%
viability at 28.5 h, 10 µM [2]: 101%
viability at 28.5 h, 10 µM [3]: 90.4%
activity at 1 µM [4]: 90.3%
activity at 5 µM [4]: 35.6%
activity at 10 µM [4]: 13.2%

O=C(Nc1ccc(S(=O)(=O)Nc2ncccn2)cc1)c1ccc2c(c1)OCCO2 [CBK268132]
activity at 1 µM [1]: 135%
activity at 5 µM [1]: 76.4%
activity at 10 µM [1]: 55.4%
viability at 28.5 h, 1 µM [2]: 84%
viability at 28.5 h, 5 µM [2]: 94.2%
viability at 28.5 h, 10 µM [2]: 95.2%
viability at 28.5 h, 10 µM [3]: 96.7%
activity at 1 µM [4]: 89.9%
activity at 5 µM [4]: 82.3%
activity at 10 µM [4]: 42.6%

Cc1cc(NS(=O)(=O)c2ccc(NC(=S)NC(=O)C(C)(C)C)cc2)no1 [CBK268877]
activity at 1 µM [1]: 123%
activity at 5 µM [1]: 78.8%
activity at 10 µM [1]: 33.7%
viability at 28.5 h, 1 µM [2]: 93.4%
viability at 28.5 h, 5 µM [2]: 96.5%
viability at 28.5 h, 10 µM [2]: 99.1%
viability at 28.5 h, 10 µM [3]: 95.7%
activity at 1 µM [4]: 74.7%
activity at 5 µM [4]: 64%
activity at 10 µM [4]: 35.4%

COc1ccc2[nH]cc(CCNC(=O)c3ccc([N+](=O)[O-])c(C)c3)c2c1 [CBK269426]
activity at 1 µM [1]: 149%
activity at 5 µM [1]: 100%
activity at 10 µM [1]: 62.1%
viability at 28.5 h, 1 µM [2]: 85.4%
viability at 28.5 h, 5 µM [2]: 90.5%
viability at 28.5 h, 10 µM [2]: 84.5%
viability at 28.5 h, 10 µM [3]: 100%
activity at 1 µM [4]: 140%
activity at 5 µM [4]: 55.8%
activity at 10 µM [4]: 21.5%

O=S(=O)(Nc1nccs1)c1ccc(Nc2ncnc3ccccc23)cc1 [CBK269487C]
activity at 1 µM [1]: 141%
activity at 5 µM [1]: 72.9%
activity at 10 µM [1]: 35%
viability at 28.5 h, 1 µM [2]: 93.3%
viability at 28.5 h, 5 µM [2]: 99%
viability at 28.5 h, 10 µM [2]: 86.3%
viability at 28.5 h, 10 µM [3]: 93.8%
activity at 1 µM [4]: 140%
activity at 5 µM [4]: 53.6%
activity at 10 µM [4]: 28.6%

O=C(Nc1nccs1)c1cc(C2CCN(C(=O)CC3CCCCC3)C2)nc2ccccc12 (centres unmarked) [CBK285586]
activity at 1 µM [1]: 134%
activity at 5 µM [1]: 122%
activity at 10 µM [1]: 35.7%
viability at 28.5 h, 1 µM [2]: 92.6%
viability at 28.5 h, 5 µM [2]: 93%
viability at 28.5 h, 10 µM [2]: 93.3%
viability at 28.5 h, 10 µM [3]: 116%
activity at 1 µM [4]: 115%
activity at 5 µM [4]: 119%
activity at 10 µM [4]: 48.9%

COc1cccc(C(=O)N2CCC(Cc3ccc(-c4cccc(C)c4)cc3)(C(N)=O)CC2)c1 [CBK285779]
activity at 1 µM [1]: 119%
activity at 5 µM [1]: 104%
activity at 10 µM [1]: 49.9%
viability at 28.5 h, 1 µM [2]: 96.4%
viability at 28.5 h, 5 µM [2]: 98.8%
viability at 28.5 h, 10 µM [2]: 90.2%
viability at 28.5 h, 10 µM [3]: 115%
activity at 1 µM [4]: 113%
activity at 5 µM [4]: 114%
activity at 10 µM [4]: 62.9%

Reference: paper PMC12040169 (PLOS Biology, 2025)
